Data on six compounds can be found in PMC10093836, “Stabilization of the Dimeric State of SARS-CoV-2 Main Protease by GC376 and Nirmatrelvir” (International Journal of Molecular Sciences, 2023).

One assay has as its system cells. The arrangement: method as in PMID 32841477. As to conditions: literature values; cited from earlier work.
A further assay relates to Mpro. As to conditions: read-out: IC50 for Mpro; literature data; cited from earlier work.
Assay [1] concerns the target SARS-CoV-2 Mpro (Nsp5, 3CLpro) (Severe acute respiratory syndrome coronavirus 2, UniProt P0DTD1). Nature of the assay: biochemical. It counts as binding. The following applies: for Binding to Mpro (MST), in words: no binding curve produced.
The next assay has as its target SARS-CoV-2 protease. Further details: method as in PMID 34726479, PMID 35233052, PMID 34653812. The following applies: literature; read-out: Inhibition constant (Ki); cited from earlier work.

`CCCCCCNC(=O)n1cc(F)c(=O)[nH]c1=O` [Carmofur]: the EC50 in the assay on cells was 24000 ± 3000 nM.
`CC(C)C[C@H](NC(=O)OCc1ccccc1)C(=O)N[C@@H](CC1CCNC1=O)C(O)S(=O)(=O)O` (stereo partly shown) [GC376]: the IC50 in the assay on Mpro is 190 ± 40 nM.
Take `Cc1cccc(C)c1OCC(=O)N[C@@H](Cc1ccccc1)[C@@H](O)C[C@H](Cc1ccccc1)NC(=O)[C@H](C(C)C)N1CCCNC1=O` [Lopinavir]: in assay [1], the dissociation constant Kd is above 200000 nM and the “Binding to Mpro (MST), in words” value is “do not bind Mpro effectively”.
In the case of `CC(C)(C)[C@H](NC(=O)C(F)(F)F)C(=O)N1C[C@H]2[C@@H]([C@H]1C(=O)N[C@H](C#N)C[C@@H]1CCNC1=O)C2(C)C` [NMV, Nirmatrelvir], the Ki on SARS-CoV-2 protease is 3 nM.
With `Cc1c(O)cccc1C(=O)N[C@@H](CSc1ccccc1)[C@H](O)CN1C[C@H]2CCCC[C@H]2C[C@H]1C(=O)NC(C)(C)C` [Nelfinavir], the “Binding to Mpro (MST), in words” value in assay [1] was “do not bind Mpro effectively”.
On the same count and under the same terms, the value for `CC(C)c1nc(CN(C)C(=O)N[C@H](C(=O)N[C@@H](Cc2ccccc2)C[C@H](O)[C@H](Cc2ccccc2)NC(=O)OCc2cncs2)C(C)C)cs1` [RTV, ritonavir] was “do not bind Mpro effectively”.

A word on the EC50: it is the midpoint of the concentration-response curve. The term IC50 denotes the midpoint of a concentration-inhibition curve. Usually Kd stands for the free concentration of one partner at which half of the binding sites on the other are occupied at equilibrium, for simple one-to-one binding. As usually defined, the Ki is a measure of affinity in units of concentration, obtained from inhibition or displacement.
